Laboratory results published in ChEMBL document CHEMBL1201862, “PubChem BioAssay data set” (2004).
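Cells were grown in 96-well plates and exposed to each compound for 48 hours at five concentrations; endpoints were interpolated linearly between bracketing concentrations, or set to the highest concentration if not reached. GI50 = concentration required for 50% inhibition of growth.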 Active and inactive are the calls of the source. No stated cut-off is given here; in the data, active = GI50 up to about 1.1 µM and inactive = higher.

Legend:
Assay in all cases: NCI-60 cell line screen, 48 h
DLD-1 = tested on: DLD-1
DMS-114 = tested on: DMS-114
DMS-273 = tested on: DMS-273
HOP-18 = tested on: HOP-18
KM-20L2 = tested on: KM-20L2
LXFL 529 = tested on: LXFL 529
RXF 631 = tested on: RXF 631
SNB-78 = tested on: SNB-78
XF498 = tested on: XF498

Measured: GI50

COc1cccc(SSc2cccc(OC)c2C(=O)O)c1C(=O)O
inactive: DLD-1 > 100 µM | DMS-114 > 100 µM | DMS-273 > 100 µM | HOP-18 > 100 µM | KM-20L2 > 100 µM | LXFL 529 > 100 µM | RXF 631 > 100 µM | SNB-78 > 100 µM | XF498 > 100 µM

COC(=O)C(=O)C(C(=O)OC)C(=O)C(=O)Nc1c(C)cccc1C (stereo unspecified)
inactive: DLD-1 > 100 µM | DMS-114 > 100 µM | HOP-18 > 100 µM | KM-20L2 > 100 µM | LXFL 529 > 100 µM | RXF 631 > 100 µM | SNB-78 > 100 µM | XF498 > 100 µM

Cc1cc(NC(=O)C2C3C=CC(O3)C2C(=O)O)no1 (stereo unspecified)
inactive: DLD-1 24 µM | DMS-114 15.7 µM | DMS-273 16.8 µM | HOP-18 > 100 µM | KM-20L2 13.7 µM | LXFL 529 20.4 µM | RXF 631 80.5 µM | SNB-78 > 100 µM | XF498 > 100 µM
